# Reference: ChEMBL document CHEMBL1201861, “Genomics of Drug Sensitity in Cancer screening data, Wellcome Trust Sanger Institute”
# Assays:
# Assay in all cases: cells
# Type in all cases: functional, cell-based
# Conditions in all cases: Homo sapiens
# [1] = test system: CaR-1;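 note: growth inhibition of human CaR-1 cancer cells, read out with a cell viability assay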
# Description: SANGER: Inhibition of human CaR-1 cell growth in a cell viability assay.
# [2] = test system: DOK;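 note: cell viability assay read-out, values reflect inhibition of cell growth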
# Description: SANGER: Inhibition of human DOK cell growth in a cell viability assay.
# [3] = test system: DV-90;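 note: Read-out is a viability assay, with IC50 reflecting the drop in DV-90 cell growth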
# Description: SANGER: Inhibition of human DV-90 cell growth in a cell viability assay.
# [4] = test system: ECC4;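 note: growth inhibition of ECC4 cells, read out with a cell viability assay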
# Description: SANGER: Inhibition of human ECC4 cell growth in a cell viability assay.
# [5] = test system: GAMG;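 note: cell growth inhibition measured by a viability assay in the GAMG human cell line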
# Description: SANGER: Inhibition of human GAMG cell growth in a cell viability assay.
# [6] = test system: GDM-1;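 note: cell viability readout used to measure growth inhibition of human GDM-1 cells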
# Description: SANGER: Inhibition of human GDM-1 cell growth in a cell viability assay.
# [7] = test system: HCC1569;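 note: growth inhibition of human HCC1569 cells, read out with a cell viability assay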
# Description: SANGER: Inhibition of human HCC1569 cell growth in a cell viability assay.
# [8] = test system: HN
# Description: SANGER: Inhibition of human HN cell growth in a cell viability assay.
# [9] = test system: HT-1376
# Description: SANGER: Inhibition of human HT-1376 cell growth in a cell viability assay.
# [10] = test system: HT55;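 note: cell viability readout measuring growth inhibition of human HT55 cells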
# Description: SANGER: Inhibition of human HT55 cell growth in a cell viability assay.
# [11] = test system: HTC-C3;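 note: inhibition of cell growth, read out with a cell viability assay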
# Description: SANGER: Inhibition of human HTC-C3 cell growth in a cell viability assay.
# [12] = test system: Hs-578T
# Description: SANGER: Inhibition of human Hs-578-T cell growth in a cell viability assay.
# [13] = test system: HuP-T3;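 note: HuP-T3 cell growth inhibition, read out with a cell viability assay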
# Description: SANGER: Inhibition of human HuP-T3 cell growth in a cell viability assay.
# [14] = test system: KP-4;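 note: human KP-4 cells, with growth inhibition read out through a cell viability assay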
# Description: SANGER: Inhibition of human KP-4 cell growth in a cell viability assay.
# [15] = test system: KYSE-450;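 note: cell growth inhibition measured by a viability assay in human KYSE-450 cells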
# Description: SANGER: Inhibition of human KYSE-450 cell growth in a cell viability assay.
# [16] = test system: LB647-SCLC;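 note: cell growth inhibition, read out by a viability assay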
# Description: SANGER: Inhibition of human LB647-SCLC cell growth in a cell viability assay.
# [17] = test system: LB996-RCC
# Description: SANGER: Inhibition of human LB996-RCC cell growth in a cell viability assay.
# [18] = test system: LC-1F;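 note: growth inhibition of human LC-1F cells, read out with a cell viability assay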
# Description: SANGER: Inhibition of human LC-1F cell growth in a cell viability assay.
# [19] = test system: M059J;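 note: growth inhibition of M059J cells, read out with a cell viability assay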
# Description: SANGER: Inhibition of human M059J cell growth in a cell viability assay.
# [20] = test system: MDA-MB-175-VII
# [21] = test system: MG-63;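 note: growth inhibition of human MG-63 cells, read out with a cell viability assay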
# Description: SANGER: Inhibition of human MG-63 cell growth in a cell viability assay.
# [22] = test system: NALM-6;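 note: growth inhibition of NALM-6 cells, read out with a cell viability assay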
# Description: SANGER: Inhibition of human NALM-6 cell growth in a cell viability assay.
# [23] = test system: NCI-H1417;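 note: human NCI-H1417 cells, growth inhibition determined with a cell viability readout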
# Description: SANGER: Inhibition of human NCI-H1417 cell growth in a cell viability assay.
# [24] = test system: NCI-H1618;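 note: growth inhibition of human NCI-H1618 cells, measured by a cell viability assay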
# Description: SANGER: Inhibition of human NCI-H1618 cell growth in a cell viability assay.
# [25] = test system: NCI-H1703;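 note: growth inhibition of NCI-H1703 cells, read out via a cell viability assay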
# Description: SANGER: Inhibition of human NCI-H1703 cell growth in a cell viability assay.
# [26] = test system: NCI-H1882;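 note: growth inhibition of the cell line, determined with a viability assay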
# Description: SANGER: Inhibition of human NCI-H1882 cell growth in a cell viability assay.
# [27] = test system: NCI-H2087;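 note: growth inhibition determined with a cell viability readout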
# Description: SANGER: Inhibition of human NCI-H2087 cell growth in a cell viability assay.
# [28] = test system: NCI-H2347;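 note: growth inhibition of the cell line, read out with a cell viability assay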
# Description: SANGER: Inhibition of human NCI-H2347 cell growth in a cell viability assay.
# [29] = test system: NCI-H2452;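 note: growth inhibition of NCI-H2452 cells, read out with a cell viability assay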
# Description: SANGER: Inhibition of human NCI-H2452 cell growth in a cell viability assay.
# [30] = test system: NCI-H322M;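 note: cell viability assay measuring inhibition of growth of human NCI-H322M cells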
# Description: SANGER: Inhibition of human NCI-H322M cell growth in a cell viability assay.
# [31] = test system: NCI-H460;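 note: cell viability assay scoring growth inhibition of human NCI-H460 cells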
# Description: SANGER: Inhibition of human NCI-H460 cell growth in a cell viability assay.
# [32] = test system: NCI-H64;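 note: growth inhibition of NCI-H64 cells, read out with a cell viability assay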
# Description: SANGER: Inhibition of human NCI-H64 cell growth in a cell viability assay.
# [33] = test system: NY
# Description: SANGER: Inhibition of human NY cell growth in a cell viability assay.
# [34] = test system: OE19;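 note: growth inhibition of OE19 cells, measured through a cell viability read-out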
# Description: SANGER: Inhibition of human OE19 cell growth in a cell viability assay.
# [35] = test system: Panc1005;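 note: growth inhibition of human PANC-10-05 cells, measured by a cell viability assay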
# Description: SANGER: Inhibition of human PANC-10-05 cell growth in a cell viability assay.
# [36] = test system: PC-3;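 note: cell viability assay measuring growth inhibition of PC-3 cells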
# Description: SANGER: Inhibition of human PC-3 cell growth in a cell viability assay.
# [37] = test system: PFSK-1;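 note: cell viability assay measuring how strongly compounds suppress growth of human PFSK-1 cells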
# Description: SANGER: Inhibition of human PFSK-1 cell growth in a cell viability assay.
# [38] = test system: RERF-LC-MS;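 note: growth inhibition of human RERF-LC-MS cells, read out by a cell viability assay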
# Description: SANGER: Inhibition of human RERF-LC-MS cell growth in a cell viability assay.
# [39] = test system: SCC-3;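 note: cell viability assay measuring inhibition of SCC-3 cell growth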
# Description: SANGER: Inhibition of human SCC-3 cell growth in a cell viability assay.
# [40] = test system: SIG-M5;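 note: cell viability assay read-out, measuring how strongly growth of cultured human SIG-M5 cells is inhibited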
# Description: SANGER: Inhibition of human SIG-M5 cell growth in a cell viability assay.
# [41] = test system: SK-MEL-30;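 note: growth inhibition of SK-MEL-30 cells, determined with a cell viability assay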
# Description: SANGER: Inhibition of human SK-MEL-30 cell growth in a cell viability assay.
# [42] = test system: SK-N-AS;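 note: growth inhibition of human SK-N-AS cells, measured with a cell viability assay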
# Description: SANGER: Inhibition of human SK-N-AS cell growth in a cell viability assay.
# [43] = test system: SK-OV-3;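 note: growth inhibition of SK-OV-3 human cells, read out with a cell viability assay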
# Description: SANGER: Inhibition of human SK-OV-3 cell growth in a cell viability assay.
# [44] = test system: SKG-IIIa;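 note: cell growth inhibition, read out with a cell viability assay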
# Description: SANGER: Inhibition of human SKG-IIIa cell growth in a cell viability assay.
# [45] = test system: SNU-449
# Description: SANGER: Inhibition of human SNU-449 cell growth in a cell viability assay.
# [46] = test system: SW1417;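 note: growth inhibition of human SW1417 cells, read out with a cell viability assay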
# Description: SANGER: Inhibition of human SW1417 cell growth in a cell viability assay.
# [47] = test system: TALL-1;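 note: growth inhibition of cultured human TALL-1 cells, read out by a cell viability assay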
# Description: SANGER: Inhibition of human TALL-1 cell growth in a cell viability assay.
# [48] = test system: 769-P
# Description: SANGER: Inhibition of human 769-P cell growth in a cell viability assay.
# [49] = test system: A 172;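 note: growth inhibition of A172 cells, measured with a cell viability readout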
# Description: SANGER: Inhibition of human A172 cell growth in a cell viability assay.
# [50] = test system: AGS;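 note: growth inhibition of AGS cells, determined with a cell viability assay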
# Description: SANGER: Inhibition of human AGS cell growth in a cell viability assay.
# [51] = test system: AN3-CA;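 note: growth inhibition of human AN3-CA cells measured by a cell viability assay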
# Description: SANGER: Inhibition of human AN3-CA cell growth in a cell viability assay.
# [52] = test system: BC-3;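 note: cell viability assay measuring growth inhibition of human BC-3 cells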
# Description: SANGER: Inhibition of human BC-3 cell growth in a cell viability assay.
# [53] = test system: BL-41;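 note: growth inhibition of human BL-41 cells, read out with a cell viability assay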
# Description: SANGER: Inhibition of human BL-41 cell growth in a cell viability assay.
# [54] = test system: C3A;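 note: growth inhibition of C3A human cells, quantified with a cell viability readout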
# Description: SANGER: Inhibition of human C3A cell growth in a cell viability assay.
# [55] = test system: CAKI-1;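 note: growth inhibition of CAKI-1 cells, measured by a cell viability assay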
# Description: SANGER: Inhibition of human CAKI-1 cell growth in a cell viability assay.
# [56] = test system: CAL-33;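 note: growth inhibition of CAL-33 cells, read out with a cell viability assay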
# Description: SANGER: Inhibition of human CAL-33 cell growth in a cell viability assay.
# [57] = test system: CAL-62;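 note: growth inhibition of CAL-62 cells, read out with a cell viability assay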
# Description: SANGER: Inhibition of human CAL-62 cell growth in a cell viability assay.
# [58] = test system: CAL-85-1
# Description: SANGER: Inhibition of human CAL-85-1 cell growth in a cell viability assay.
# [59] = test system: THP-1
# Description: SANGER: Inhibition of human THP-1 cell growth in a cell viability assay.
# [60] = test system: WM-115
# Description: SANGER: Inhibition of human WM-115 cell growth in a cell viability assay.
structure (smiles),measurement,setting,value
CC(O)(CS(=O)(=O)c1ccc(F)cc1)C(=O)Nc1ccc(C#N)c(C(F)(F)F)c1 (stereo not given) [BICALUTAMIDE],IC50,[1],> 1020 nM
same,IC50,[2],> 1020 nM
same,IC50,[3],> 1020 nM
same,IC50,[4],> 1020 nM
same,IC50,[5],> 1020 nM
same,IC50,[6],> 1020 nM
same,IC50,[7],> 1020 nM
same,IC50,[8],> 1020 nM
same,IC50,[9],> 1020 nM
same,IC50,[10],> 1020 nM
same,IC50,[11],> 1020 nM
same,IC50,[12],> 1020 nM
same,IC50,[13],> 1020 nM
same,IC50,[14],> 1020 nM
same,IC50,[15],> 1020 nM
same,IC50,[16],> 1020 nM
same,IC50,[17],> 1020 nM
same,IC50,[18],> 1020 nM
same,IC50,[19],> 1020 nM
same,IC50,[20],> 1020 nM
same,IC50,[21],> 1020 nM
same,IC50,[22],> 1020 nM
same,IC50,[23],> 1020 nM
same,IC50,[24],> 1020 nM
same,IC50,[25],> 1020 nM
same,IC50,[26],> 1020 nM
same,IC50,[27],> 1020 nM
same,IC50,[28],> 1020 nM
same,IC50,[29],> 1020 nM
same,IC50,[30],> 1020 nM
same,IC50,[31],> 1020 nM
same,IC50,[32],> 1020 nM
same,IC50,[33],> 1020 nM
same,IC50,[34],> 1020 nM
same,IC50,[35],> 1020 nM
same,IC50,[36],> 1020 nM
same,IC50,[37],> 1020 nM
same,IC50,[38],> 1020 nM
same,IC50,[39],> 1020 nM
same,IC50,[40],> 1020 nM
same,IC50,[41],> 1020 nM
same,IC50,[42],> 1020 nM
same,IC50,[43],> 1020 nM
same,IC50,[44],> 1020 nM
same,IC50,[45],> 1020 nM
same,IC50,[46],> 1020 nM
same,IC50,[47],> 1020 nM
same,IC50,[48],> 1020 nM
same,IC50,[49],> 1020 nM
same,IC50,[50],> 1020 nM
same,IC50,[51],> 1020 nM
same,IC50,[52],> 1020 nM
same,IC50,[53],> 1020 nM
same,IC50,[54],> 1020 nM
same,IC50,[55],> 1020 nM
same,IC50,[56],> 1020 nM
same,IC50,[57],> 1020 nM
same,IC50,[58],> 1020 nM
same,IC50,[59],> 1020 nM
same,IC50,[60],> 1020 nM
CCNC(=O)c1noc(-c2cc(C(C)C)c(O)cc2O)c1-c1ccc(CN2CCOCC2)cc1 [LUMINESPIB],IC50,[1],> 256 nM
same,IC50,[2],> 256 nM
same,IC50,[3],> 256 nM
same,IC50,[4],199 nM
same,IC50,[5],13.7 nM
same,IC50,[6],8.4 nM
same,IC50,[7],36.1 nM
same,IC50,[8],25.9 nM
same,IC50,[9],98.6 nM
same,IC50,[10],> 256 nM
same,IC50,[11],26.1 nM
same,IC50,[12],> 256 nM
same,IC50,[13],16.5 nM
same,IC50,[14],36.6 nM
same,IC50,[15],13.5 nM
same,IC50,[16],240 nM
same,IC50,[17],27.1 nM
same,IC50,[18],> 256 nM
same,IC50,[19],22.4 nM
same,IC50,[20],> 256 nM
same,IC50,[21],18.7 nM
same,IC50,[22],0.842 nM
same,IC50,[23],48.9 nM
same,IC50,[24],> 256 nM
same,IC50,[25],61.8 nM
same,IC50,[26],> 256 nM
same,IC50,[27],32.9 nM
same,IC50,[28],80.3 nM
same,IC50,[29],> 256 nM
same,IC50,[30],> 256 nM
same,IC50,[31],13.4 nM
same,IC50,[32],> 256 nM
same,IC50,[33],17.4 nM
same,IC50,[34],19.5 nM
same,IC50,[35],17.5 nM
same,IC50,[36],132 nM
same,IC50,[37],103 nM
same,IC50,[38],134 nM
same,IC50,[39],> 256 nM
same,IC50,[40],4.89 nM
same,IC50,[41],43.6 nM
same,IC50,[42],> 256 nM
same,IC50,[43],6.3 nM
same,IC50,[44],178 nM
same,IC50,[45],20.3 nM
same,IC50,[46],> 256 nM
same,IC50,[47],> 256 nM
same,IC50,[48],10.7 nM
same,IC50,[49],39.5 nM
same,IC50,[50],10.6 nM
same,IC50,[51],10.2 nM
same,IC50,[52],30.2 nM
same,IC50,[53],56 nM
same,IC50,[54],24.8 nM
same,IC50,[55],251 nM
same,IC50,[56],43.8 nM
same,IC50,[57],25.7 nM
same,IC50,[58],11.9 nM
same,IC50,[59],153 nM
same,IC50,[60],> 256 nM
